From US20240383908A1, “SYNTHESIS AND APPLICATION OF PHOSPHATASE DEGRADER” (HINOVA PHARMACEUTICALS INC., priority 2021, published 2024)

Columns and labels:
Assay type in all cases: cell-based
[1] = target: T1, SHP2 protein (Homo sapiens, UniProt Q06124); experiment: Degradation activity on SHP2 protein in MIA Paca-2 cells (Western blot, DC50); parameters: endogenous in cells; host or cells: MIA Paca-2 cells; settings: read-out: Degradation activity for differenct cell lines MIA Paca-2 (DC50)
T1 sequence (Q06124 1-593): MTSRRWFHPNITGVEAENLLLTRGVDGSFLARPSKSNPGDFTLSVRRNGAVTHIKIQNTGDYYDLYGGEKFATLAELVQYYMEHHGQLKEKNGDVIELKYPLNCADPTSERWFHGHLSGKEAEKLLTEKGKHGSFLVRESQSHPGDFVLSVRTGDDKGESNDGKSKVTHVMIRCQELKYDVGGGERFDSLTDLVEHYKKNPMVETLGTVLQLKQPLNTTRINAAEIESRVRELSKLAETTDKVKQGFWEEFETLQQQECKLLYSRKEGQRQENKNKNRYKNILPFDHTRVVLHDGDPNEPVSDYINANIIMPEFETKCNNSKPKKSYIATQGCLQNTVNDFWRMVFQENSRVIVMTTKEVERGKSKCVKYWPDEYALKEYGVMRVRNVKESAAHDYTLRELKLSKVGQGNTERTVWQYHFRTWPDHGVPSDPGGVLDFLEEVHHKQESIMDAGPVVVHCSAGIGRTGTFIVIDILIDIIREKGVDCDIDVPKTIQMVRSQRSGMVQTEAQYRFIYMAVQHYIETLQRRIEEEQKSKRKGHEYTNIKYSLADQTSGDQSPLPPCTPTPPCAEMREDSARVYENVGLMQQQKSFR
Method in brief: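 Cells were treated 24 h at 37 °C with compound (0.1–100 nM final, 0.1% DMSO). SHP2 was measured by Western blot with GAPDH as loading control, densitometry normalized to DMSO (100%). DC50, the concentration giving 50% degradation, came from a dose-response fit.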

[2] = system: MIA Paca-2; experiment: Inhibition of cell proliferation, MIA Paca-2 (CCK-8); settings: Homo sapiens, MIA Paca-2 cells, read-out: Inhibition activity on the proliferation of different cell lines MIA Paca-2 (IC50)
Description: (§1) (1) MV-411 cells were cultured in the cell culture medium, and then well-growing cells were selected and inoculated in a 96-well plate at 80 μL/well, with 2×10^4 cells/well. The plate was incubated overnight in a 5% CO2 cell incubator at 37° C.
(§2) (2) 10 mM storage solution of each drug was prepared using dimethylsulfoxide (DMSO). The stock solution was diluted in a ratio of 1:3 with DMSO before use, and then the solution was serially diluted in a ratio of 1:3, to obtain 9 gradient concentrations. Each concentration was further diluted with the medium in a ratio of 1:200 (to ensure that the DMSO concentration in the culture system was 0.1%). Two wells were set for each concentration. 20 μL of each compound solution was added to the cell culture well (with a final concentration of 10 μM, 3.3 μM, 1.1 μM . . . ). The plate was gently shaken and mixed. Additionally, 3 negative control wells (only containing cells) and 3 blank control wells (only containing the medium) were included (6 wells were each added with 20 μL of DMSO diluted with the medium in a ratio of 1:200).
(§3) (1) After 5 days of cultivation, 10 μL of CCK-8 was added to each well, and then the plate was further cultured for 3 h at 37° C. in a 5% CO2 cell incubator.
(§4) (2) The absorbance (OD value) was measured at 450 nm with a multifunctional microplate reader. (3) The data were analyzed using the Dose-response-inhibition equation in GraphPad Prism8 software to obtain the IC50 value.
(§5) Using a similar method, the IC50 value (nM) for the inhibitory activity of the compound according to the present invention against different cell lines was obtained, and the results are shown in Table 3 (++++: IC50>5 μM; +++: 1 μM<IC50<5 μM; ++: IC50<1 μM).

[3] = system: MV-411 cell line; experiment: Inhibition of cell proliferation, MV-411 (CCK-8); settings: Homo sapiens, MV4-11, 120 h, MV411 cells, 5 days, read-out: Inhibition activity on the proliferation of different cell lines MV411 (IC50)
Description: • MV-411 cell line (COBIER, CBP-60522) • FBS (GEMINI, Cat. No. 900-108) • 0.01M PBS (Biosharp, Cat. No. 162262) • IMDM (Hyclone, Cat. No. SH30228.01) • Penicillin-Streptomycin (Gibco, Cat. No. 15140122) • DMSO (Sigma, Cat. No. D5879) • Cell counting kit-8 (Signalway Antibody, Cat. No. CP002) • Centrifuge Tube, 15 ml (Excell Bio, Cat. No. CS015-0001) • Cell Culture Dish, (WHB, Cat. No. CS016-0128) • 96-well cell culture cluster (Corning, Cat. No. 3599)
• (1) Cell culture medium: IMDM medium+10% FBS+1% Pen Strep; • (2) PBS buffer: PBS powder was dissolved in 2 L of ultrapure water and sterilized;
as §1, §2, §3, §4

[4] = system: NCI-H358; experiment: Inhibition of cell proliferation, NCI-H358 (CCK-8); settings: Homo sapiens, NCI-H358 cells, read-out: Inhibition activity on the proliferation of different cell lines NCI-H358 (IC50)
Description: as §1, §2, §3, §4, §5

Compound	DC50 [1] [µM]	IC50 [2] [µM]	IC50 [3] [µM]	IC50 [4] [µM]
CCC1(N)CCN(c2cnc(Sc3cccc(NC(=O)CCCCCCN4CC5(CCN(c6ccc(C(=O)NCc7ccc8c(c7)CN(C7CCC(=O)NC7=O)C8=O)nn6)C5)C4)c3)cn2)CC1 (stereo not drawn) [Compound 161]	< 0.1	1 to 5	< 1	1 to 5
CC1(N)CCN(c2cnc(Sc3cccc(NC(=O)CCCCCCCCN4C5CCC4CN(c4ccc(C(=O)NCc6ccc7c(c6)CN(C6CCC(=O)NC6=O)C7=O)nn4)C5)c3)cn2)CC1 (stereo not drawn) [Compound 119]	< 0.1	1 to 5	< 1	< 1
Cc1ncsc1-c1ccc([C@H](C)NC(=O)[C@@H]2C[C@@H](O)CN2C(=O)[C@@H](NC(=O)CCCCCCCCN2CCN(C(=O)CCC(=O)Nc3cccc(Sc4ncc(N5CCC(C)(N)CC5)nc4N)c3Cl)CC2)C(C)(C)C)cc1 [Compound 999]	< 0.1	1 to 5	< 1	1 to 5

Next, values leading:

DC50 [1] [µM]	IC50 [2] [µM]	IC50 [3] [µM]	IC50 [4] [µM]	Compound
< 0.1	1 to 5	< 1	< 1	CC1(N)CCN(c2cnc(Sc3cccc(NC(=O)CCCCCCCCN4CCN(c5ccc(C(=O)NCc6ccc7c(c6)CN(C6CCC(=O)NC6=O)C7=O)nn5)CC4)c3)cn2)CC1 (stereo not drawn) [Compound 63]
< 0.1	1 to 5	< 1	1 to 5	NC1(CO)CCN(c2cnc(Sc3cccc(NC(=O)CCCCCCN4CC5(CCN(c6ccc(C(=O)NCc7ccc8c(c7)CN(C7CCC(=O)NC7=O)C8=O)nn6)C5)C4)c3)cn2)CC1 (stereo not drawn) [Compound 168]
< 0.1	1 to 5	1 to 5	1 to 5	CC1(N)CCN(c2cnc(Sc3cccc(NC(=O)CCCCCCCCN4CCN(c5ccc(C(=O)NCc6ccc7c(c6)CN(C6CCC(=O)NC6=O)C7=O)nn5)CC4C(F)(F)F)c3)cn2)CC1 (stereo not drawn) [Compound 174]
